In brackets after ≈: the same amount, converted by molar mass. Positions of bridges follow the written chain, without caps; N, C: chain ends. Non-standard residues stand in square brackets, D forms with d. Residues, ends and D or L forms follow the SMILES beside them. S5 = C=CCCC[C@](C)(N)C(=O)O; Nle = CCCC[C@H](N)C(=O)O
Assays:
Assay type in all cases: cell-based
[1] = tested on: S aureus
Description: (§1) The following microbroth dilution protocol was adapted to determine the minimum inhibitory concentration (MIC) of each peptide. First, Mueller-Hinton broth (MHB) was passed through an anion exchange column to remove polyanionic species and generate refined MHB. […] Briefly, bacterial cells were grown overnight in refined MHB at 37° C. and then diluted and allowed to grow again for several hours. Serial dilutions of peptide stocks in water (10 μl) were prepared using clear round-bottom polypropylene 96-well plates. Then 90 μl of bacteria in refined MHB was added to give a final inoculum of 5×10^5 CFU/ml. The plates were then covered with porous tape to reduce evaporation, and incubated for 20-24 hours at 37° C. The MIC is the minimum peptide concentration at which no visible growth was observed.

[2] = tested on: B cereus
Description: as §1

[3] = tested on: P aeruginosa
Description: as §1

[4] = tested on: E coli
Description: as §1

Compound: CCCC[C@H](NC(=O)[C@]1(C)CCCC=CCCC[C@](C)(NC(=O)[C@H](C)NC(=O)[C@H](CCCCN)NC(=O)CNC(=O)[C@H](Cc2ccccc2)NC(=O)[C@H](CCCCN)NC(=O)[C@H](CCCCN)NC(=O)[C@H](CCCCN)NC(=O)[C@H](CO)NC(=O)[C@H](Cc2c[nH]cn2)NC(=O)[C@]2(C)CCCC=CCCC[C@](C)(NC(=O)CN)C(=O)NCC(=O)N[C@@H](CCCNC(=N)N)C(=O)N[C@@H](Cc3ccccc3)C(=O)N2)C(=O)N[C@@H](C(C)C)C(=O)NCC(=O)N[C@@H](CCC(=O)O)C(=O)N1)C(=O)N[C@@H](CC(N)=O)C(=O)N[C@@H](CO)C(N)=O [Mag(i+4)1,15(A9K, K4R), GXGRFXHSKKKFGKAXVGEXBNS] (H-G[S5]GRF[S5]HSKKKFGKA[S5]VGE[S5][Nle]NS-NH2; staple 2-6, 16-20; N-terminus and C-terminus assumed)
- MIC S aureus [1]: >50 µg/mL
- MIC B cereus [2]: 12.5 µg/mL (≈ 4.91 µM)
- MIC P aeruginosa [3]: 6.2 µg/mL (≈ 2.43 µM)
- MIC E coli [4]: 3.1 µg/mL (≈ 1.22 µM)

Compound: CCCC[C@H](NC(=O)[C@]1(C)CCCC=CCCC[C@](C)(NC(=O)[C@H](C)NC(=O)[C@H](CCCCN)NC(=O)CNC(=O)[C@H](Cc2ccccc2)NC(=O)[C@H](CCCCN)NC(=O)[C@H](Cc2c[nH]cn2)NC(=O)[C@H](CCCCN)NC(=O)[C@H](CO)NC(=O)[C@H](Cc2c[nH]cn2)NC(=O)[C@]2(C)CCCC=CCCC[C@](C)(NC(=O)CN)C(=O)NCC(=O)N[C@@H](Cc3c[nH]cn3)C(=O)N[C@@H](Cc3ccccc3)C(=O)N2)C(=O)N[C@@H](C(C)C)C(=O)NCC(=O)N[C@@H](CCC(=O)O)C(=O)N1)C(=O)N[C@@H](CC(N)=O)C(=O)N[C@@H](CO)C(N)=O [Mag(i+4)1,15(A9K, K4H, K10H), GXGHFXHSKHKFGKAXVGEXBNS] (H-G[S5]GHF[S5]HSKHKFGKA[S5]VGE[S5][Nle]NS-NH2; staple 2-6, 16-20)
- MIC S aureus [1]: >50 µg/mL
- MIC B cereus [2]: 50 µg/mL (≈ 19.7 µM)
- MIC P aeruginosa [3]: 50 µg/mL (≈ 19.7 µM)
- MIC E coli [4]: 3.1 µg/mL (≈ 1.22 µM)

Compound: CCCC[C@H](NC(=O)[C@]1(C)CCCC=CCCC[C@](C)(NC(=O)[C@H](C)NC(=O)[C@H](CCCCN)NC(=O)CNC(=O)[C@H](Cc2ccccc2)NC(=O)[C@H](CCCCN)NC(=O)[C@H](CCCNC(=N)N)NC(=O)[C@H](CCCCN)NC(=O)[C@H](CO)NC(=O)[C@H](Cc2c[nH]cn2)NC(=O)[C@]2(C)CCCC=CCCC[C@](C)(NC(=O)CN)C(=O)NCC(=O)N[C@@H](CCCNC(=N)N)C(=O)N[C@@H](Cc3ccccc3)C(=O)N2)C(=O)N[C@@H](C(C)C)C(=O)NCC(=O)N[C@@H](CCC(=O)O)C(=O)N1)C(=O)N[C@@H](CC(N)=O)C(=O)N[C@@H](CO)C(N)=O [Mag(i+4)1,15(A9K, K4R, K10R), GXGRFXHSKRKFGKAXVGEXBNS] (H-G[S5]GRF[S5]HSKRKFGKA[S5]VGE[S5][Nle]NS-NH2; staple 2-6, 16-20)
- MIC S aureus [1]: >50 µg/mL
- MIC B cereus [2]: 12.5 µg/mL (≈ 4.85 µM)
- MIC P aeruginosa [3]: 6.2 µg/mL (≈ 2.41 µM)
- MIC E coli [4]: 3.1 µg/mL (≈ 1.2 µM)

Compound: CCCC[C@H](NC(=O)[C@]1(C)CCCC=CCCC[C@](C)(NC(=O)[C@H](C)NC(=O)[C@H](CCCCN)NC(=O)CNC(=O)[C@H](Cc2ccccc2)NC(=O)[C@H](Cc2c[nH]cn2)NC(=O)[C@H](Cc2c[nH]cn2)NC(=O)[C@H](CCCCN)NC(=O)[C@H](CO)NC(=O)[C@H](Cc2c[nH]cn2)NC(=O)[C@]2(C)CCCC=CCCC[C@](C)(NC(=O)CN)C(=O)NCC(=O)N[C@@H](Cc3c[nH]cn3)C(=O)N[C@@H](Cc3ccccc3)C(=O)N2)C(=O)N[C@@H](C(C)C)C(=O)NCC(=O)N[C@@H](CCC(=O)O)C(=O)N1)C(=O)N[C@@H](CC(N)=O)C(=O)N[C@@H](CO)C(N)=O [Mag(i+4)1,15(A9K, K4H, K10H, K11H), GXGHFXHSKHHFGKAXVGEXBNS] (H-G[S5]GHF[S5]HSKHHFGKA[S5]VGE[S5][Nle]NS-NH2; staple 2-6, 16-20)
- MIC S aureus [1]: >50 µg/mL
- MIC B cereus [2]: >50 µg/mL
- MIC P aeruginosa [3]: 50 µg/mL (≈ 19.6 µM)
- MIC E coli [4]: 17.7 µg/mL (≈ 6.95 µM)

Compound: CCCC[C@H](NC(=O)[C@]1(C)CCCC=CCCC[C@](C)(NC(=O)[C@H](C)NC(=O)[C@H](CCCCN)NC(=O)CNC(=O)[C@H](Cc2ccccc2)NC(=O)[C@H](CCCCN)NC(=O)[C@H](CCCCN)NC(=O)[C@H](CCCCN)NC(=O)[C@H](CO)NC(=O)[C@H](Cc2c[nH]cn2)NC(=O)[C@]2(C)CCCC=CCCC[C@](C)(NC(=O)CN)C(=O)NCC(=O)N[C@@H](Cc3c[nH]cn3)C(=O)N[C@@H](Cc3ccccc3)C(=O)N2)C(=O)N[C@@H](C(C)C)C(=O)NCC(=O)N[C@@H](CCC(=O)O)C(=O)N1)C(=O)N[C@@H](CC(N)=O)C(=O)N[C@@H](CO)C(N)=O [Mag(i+4)1,15(A9K, K4H), GXGHFXHSKKKFGKAXVGEXBNS] (H-G[S5]GHF[S5]HSKKKFGKA[S5]VGE[S5][Nle]NS-NH2; staple 2-6, 16-20; N-terminus and C-terminus assumed)
- MIC S aureus [1]: >50 µg/mL
- MIC B cereus [2]: 25 µg/mL (≈ 9.89 µM)
- MIC P aeruginosa [3]: 6.2 µg/mL (≈ 2.45 µM)
- MIC E coli [4]: 3.1 µg/mL (≈ 1.23 µM)

— patent US11325955B2, “Stabilized anti-microbial peptides for the treatment of antibiotic-resistant bacterial infections” (priority 2017, dated 2022)
